Data on 1 substance can be found in article PMC10411625, “Rationally designed stapled peptides allosterically inhibit PTBP1–RNA-binding” (Chemical Science, 2023).

Data set [1] addresses T1, PTBP1 RRM1 (MBP-RRM1, G41-A163) (Homo sapiens, UniProt P26599).
T1 construct: (G41-A163); His tag; made in house; host or cells: E. coli BL21 DE3 RIL
T1 sequence (P26599 41-163): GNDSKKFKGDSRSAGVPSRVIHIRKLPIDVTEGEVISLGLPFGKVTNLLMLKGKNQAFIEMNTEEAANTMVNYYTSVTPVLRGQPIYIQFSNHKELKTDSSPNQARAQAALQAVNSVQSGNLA
Description: Fluorescence polarization binding of FAM-RNA to PTBP1 RRM1. Conditions: FP, 5 nM FAM-labelled RNA, 20 mM sodium phosphate pH 8.0, 50 mM NaCl, 0.001% Tween20, 20 °C, 30 min. An excerpt: (§1) To confirm the role of the α3-helix described by the Allain group we performed fluorescence polarization (FP) experiments with various PTBP1 protein constructs and two RNA sequences.[25] The first set of proteins contained either the single RRM1, RRM1 lacking the α3-helix (RRM1Δα3) or RRM1–L151G (Fig. 1A and C). The L151G mutation was previously described by the Allain group to break the fold of the helix and reduce RNA-binding 2.3 fold as measured by ITC.[25] As tracer in the FP experiments, we used a FAM-labelled short RNA (RNA-1) with a single PTBP1 binding site (UCUU) which can accommodate a single RRM (Fig. 1B). […] The L151G mutation reduced binding 3.6-fold which is somewhat higher than what was observed previously but in the same range. […] To see whether the effect of the helix was also present in larger constructs we measured the affinity of RRM1 and 2 combined (RRM12) as well as the RRM12–L151G mutant. […]
(§2) size exclusion chromatography (Superdex 75 16/60 or 26/60) with SEC buffer (50 mM Tris, 200 mM NaCl). Protein homogeneity was assessed by the size exclusion chromatogram and purity was checked by SDS-PAGE analysis to be >= 90%.
(§3) The gene encoding for SRSF1-RRM12 (1-195) was subcloned into pOPIN-His expression vector and expressed in E. coli BL21 (DE3). […]
(§4) Fluorescence polarization assay with PTBP1 […]
Background: In fluorescence polarisation assays a small probe gives low polarisation when free and higher when bound to something large.

The target in data set [2] is T2, PTBP1 RRM1Δα3 (RRM1 lacking the α3-helix) (Homo sapiens, UniProt P26599).
T2 construct: (G41-S140); His tag (N); made in house; host or cells: E. coli BL21 DE3 RIL
Put plainly: Fluorescence polarization binding of FAM-RNA to PTBP1 RRM1Δα3. Particulars: FP, 5 nM FAM-labelled RNA, 20 mM sodium phosphate pH 8.0, 50 mM NaCl, 0.001% Tween20, 20 °C, 30 min.
Text: as §1, §2, §3, §4

The target of a further data set is T3, PTBP1 RRM1-L151G (Homo sapiens, UniProt P26599, L151G).
T3 construct: (G41-A163,; His tag; made in house; host or cells: E. coli BL21 DE3 RIL
T3 sequence (P26599 41-163 L151G): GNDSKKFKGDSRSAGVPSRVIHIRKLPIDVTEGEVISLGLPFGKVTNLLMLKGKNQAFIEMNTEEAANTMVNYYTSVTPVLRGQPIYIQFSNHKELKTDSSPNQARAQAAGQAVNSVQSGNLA
Description: Fluorescence polarization binding of FAM-RNA to PTBP1 RRM1-L151G.
Text: as §1, §2, §3, §4

For data set [3], the target named is T4, PTBP1 RRM2 (MBP-RRM2, M177-D284) (Homo sapiens, UniProt P26599).
T4 construct: (M177- D284); His tag; made in house; host or cells: E. coli BL21 DE3 RIL
T4 sequence (P26599 177-284): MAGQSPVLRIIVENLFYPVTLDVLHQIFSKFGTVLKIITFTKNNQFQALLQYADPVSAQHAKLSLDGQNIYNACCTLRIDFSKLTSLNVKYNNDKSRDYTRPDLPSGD
Put plainly: Fluorescence polarization binding of FAM-RNA to PTBP1 RRM2. Conditions: FP, 5 nM FAM-labelled RNA, 20 mM sodium phosphate pH 8.0, 50 mM NaCl, 0.001% Tween20, 20 °C, 30 min.
Text: as §1, §2, §3, §4

The target in the next data set is T5, PTBP1 RRM12 (P57-V265) (Homo sapiens, UniProt P26599).
T5 construct: (P57-V265); MBP (from pMAL vector); His tag; made in house; host or cells: E. coli BL21 DE3 RIL
T5 sequence (P26599 57-265): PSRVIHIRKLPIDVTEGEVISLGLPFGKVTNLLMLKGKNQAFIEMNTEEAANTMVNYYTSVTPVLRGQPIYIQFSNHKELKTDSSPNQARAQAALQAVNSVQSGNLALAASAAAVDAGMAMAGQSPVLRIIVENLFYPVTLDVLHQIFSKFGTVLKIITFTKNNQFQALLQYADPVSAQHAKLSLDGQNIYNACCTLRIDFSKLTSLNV
Description: Fluorescence polarization binding of FAM-RNA to PTBP1 RRM12. Conditions: FP, 5 nM FAM-labelled RNA, 20 mM sodium phosphate pH 8.0, 50 mM NaCl, 0.001% Tween20, 20 °C, 30 min.
Text: as §1, §2, §3, §4

In a further data set the target is T6, PTBP1 RRM12-L151G (Homo sapiens, UniProt P26599, L151G).
T6 construct: (P57-V265); MBP (from pMAL vector); His tag; made in house; host or cells: E. coli BL21 DE3 RIL
T6 sequence (P26599 57-265 L151G): T5 sequence (P26599 57-265) with L95G
Put plainly: Fluorescence polarization binding of FAM-RNA to PTBP1 RRM12-L151G.
Text: as §1, §2, §3, §4

Where [4] appears, read: FP, 5 nM FAM-labelled RNA, 20 mM sodium phosphate pH 8.0, 50 mM NaCl, 0.001% Tween20, 20 °C, 30 min.

Where a chain is given by its changes, count along the chain named. {FAM} = fluorescein (FAM) label

For “RNA-2: FAM-AUUUUUCCAUCUUUGUAUC, sequence of microRNA miR-29b-2, two poly(U) motifs (RNA, 5' {FAM}, backbone not given here)”, the dissociation constant (Kd) in data set [1] was 90 ± 23 nM; in data set [2], 6450 ± 1360 nM; with PTBP1 RRM1-L151G (setting [4]), 218 ± 11 nM; in data set [3], 721 ± 308 nM; in the data set with PTBP1 RRM12 (P57-V265), 17 ± 2 nM; with PTBP1 RRM12-L151G (setting [4]), 42 ± 1 nM. The “reduction of RNA affinity by L151G mutation, RRM1-L151G versus RRM1” value with PTBP1 RRM1-L151G (from FP KD values) was 2.4 fold. The “reduction of RNA affinity by L151G mutation, RRM12-L151G versus RRM12” value with PTBP1 RRM12-L151G (from FP KD values) came to 2.5 fold.

The Kd is a measure of binding affinity in units of concentration.
